In patent publication US20210196714A1, “COMPOSITIONS AND METHODS FOR TREATING DISORDERS CHARACTERIZED WITH ABERRANT RAS/MAPK SIGNALING” (Duke University, priority 2018, published 2021):
“Also recorded” adds a separate entry of the source.

Key:
kdm6a-MO embryos = assay: Jaw defect (MK-CH distance) in kdm6a-MO embryos; type: in vivo, zebrafish; details: kdm6a morphant, 5 dpf
Experimental: FIG. 4: Compound 8 ameliorates the CE and jaw defects caused by loss of rap/and kdm6a. (a) gRNA targeting both zebrafish rap1a and rap1b were injected into embryos at the 1-cell stage with Cas9 protein. Larvae were incubated with compound 8 (100 nM) at the 8-cell stage and scored for micrognathia. 5 dpf larvae were stained with Alcian blue to assess the layout of the jaw cartilage. In comparison to control embryos (top), rap1-CRISPR embryos have smaller jaws. […] (b) Quantitative measurement of the distance between MK and CH cartilages. (c) Larvae were scored for CE (n>30 for each concentration). (d) 5 dpf embryos were stained with Alcian blue to assess the layout of jaw cartilage. […] (e) Quantitative measurement of the distance between MK and CH cartilages. *p<0.05; ***p<0.001. […]
For convergence and extension (CE) phenotyping, embryos were scored as described (see, Leitch, C. C. et al. Nat Genet 40, 443-8 (2008)) at the 8-10 somite stage, and images were captured using an AZ100 microscope and NIS Elements software (Nikon). […] The distance between Meckel's (MK) and ceratohyal (CH) cartilages was measured on ventral bright field images with Image J (NIH). […] Fluorescence signal on embryo heads was imaged with the Nikon AZ100 microscope and DS-Qi1MC digital camera using […] Z-stacks to generate extended depth of focus images. Cell numbers were quantified using the ImageJ ICTN plugin (NIH). […]

[1] = system: zebrafish kmt2d morphants; assay: Jaw defect (MK-CH cartilage distance, Alcian blue) in kmt2d morphants; type: in vivo; details: for jaw defect, distance between MK and CH cartilages: 100 nM, 5 dpf
Experimental: To test the first criterion, the CE rescue paradigm was repeated four times by two different investigators, each using independent zebrafish adult stocks.
Morpholinos (MO) were obtained from Gene Tools (Gene Tools, LLC, Philomath, Oreg., USA) and have been described previously (see, Bogershausen, N. et al. J Clin Invest 125, 3585-99 (2015)); kmt2d-MO: 5′-[…]-3′(SEQ ID NO: 1) (5 ng); kdm6a-MO: 5′-[…] (SEQ ID NO: 2) (10 ng). kmt2d-MO and kdm6a-MO was injected into wild type (WT) Ekkwill (EK) zebrafish embryos obtained from natural matings at the 1-4 cell stage. CRISPR target sequences (rap1a: 5′-[…]-3′ (SEQ ID NO: 3) [120 pg], rap1b: 5′-[…]-3′ (SEQ ID NO: 4) [120 pg] (see, Bogershausen, N. et al. J Clin Invest 125, 3585-99 (2015)), and kmt2d: 5′-[…] (SEQ ID NO: 5) [50 pg]) were identified by crispr.mit.edu and cloned into pT7-gRNA (Addgene, Cambridge, USA) following the protocol described in http://www.addgene.org/crispr/Chen/. Guide (g)RNAs were synthesized using the T7 MEGAshortscript kit (ThermoFisher Scientific). An injection solution of gRNA plus 100 pg Cas9 protein (PNA Bio) was injected into wild type Ekkwill (EK) zebrafish embryos obtained from natural matings at the 1-cell stage. Embryos were treated with compound at the 8-cell stage. All compounds were dissolved in dimethyl sulfoxide (DMSO; 10 mM), and subsequently diluted with water to 100 μM. Using egg water, we then diluted the 100 μM solution to the concentration specific to each experiment in egg water. Embryos were incubated at 28.5° C. and egg water containing compound was replaced daily until phenotyping, mass spectrometry, or immunoblotting analysis.
For convergence and extension (CE) phenotyping, embryos were scored as described (see, Leitch, C. C. et al. Nat Genet 40, 443-8 (2008)) at the 8-10 somite stage, and images were captured using an AZ100 microscope and NIS Elements software (Nikon). To assess mandibular phenotypes, Alcian blue staining was used to stain cartilage structures in 5 dpf larvae as described (see, Chassaing, N. et al. J Med Genet 49, 373-9 (2012)). Stained larvae were imaged in glycerol using an SMZ745T stereomicroscope (Nikon). The distance between Meckel's (MK) and ceratohyal (CH) cartilages was measured on ventral bright field images with Image J (NIH). For brain cell proliferation assays, injected embryos were fixed in Dent's solution at 2 dpf. […] Fluorescence signal on embryo heads was imaged with the Nikon AZ100 microscope and DS-Qi1MC digital camera using […] Z-stacks to generate extended depth of focus images. Cell numbers were quantified using the ImageJ ICTN plugin (NIH). […]

| SMILES | jaw length / MK-CH distance (kdm6a-MO embryos) | jaw defect, distance between MK and CH cartilages [1] | jaw defect, distance between MK and CH cartilages ([1]; listed as dmDf) | jaw rescue at dosages beyond 100 nM ([1]; dose response, above 100 nM up to 1 μM) |
| --- | --- | --- | --- | --- |
| CC[C@@H](CO)Nc1ncc(C)c(-c2c[nH]c(C(=O)N[C@H](CO)c3cccc(Cl)c3)c2)n1 [Compound 2, N-((S)-1-(3-chlorophenyl)-2-hydroxyethyl)-4-(2-(((S)-1-hydroxybutan-2-yl)amino)-5-methylpyrimidin-4-yl)-1H-pyrrole-2-carboxamide] | restored significantly the jaw length of morphants and mutants to nearly wild type levels | ameliorates this defect; also recorded: rescue significantly | – | – |
| CC(C)c1nc(-c2cccc(NS(=O)(=O)c3c(F)cccc3F)c2F)c(-c2ccnc(N)n2)s1 [Compound 8, desmethyl-Dabrafenib] | can be ameliorated; also recorded: restored significantly the jaw length of morphants and mutants to nearly wild type levels | ameliorates this defect; also recorded: rescue significantly | able to rescue the jaw layout | higher dosages did not improve efficacy any further |
